Structures can show the parent of a compound that is named as a salt. Where two headings read alike, the source gives them in different places.
Test system: Canine Purkinje fiber
Assay: In vitro electro-physiological screen using canine Purkinje fibers (action potential characteristics, microelectrode)
Format: cell-based
Conditions: for Emax at 30 µM / Emax at 10 µM / Emax at 100 µM: read-out: MaxAPD95: maximum observed effect on APD95 from control value; for EC10: read-out: C10 APD95: concentration of drug which causes a 10% increase or decrease (-) in APD95 from control value; for EC20: read-out: C20 APD95: concentration of drug which causes a 20% increase or decrease (-) in APD95 from control value; for Vmax: change in the rate of rise of phase 0 of the action potential from control value (in words): concentration not given, NE = no effect; for inhibition at 100 µM: at 100 (concentration, μM)
Method: The primary method for evaluating these compounds as antiarrhythmic agents was an in vitro electro-physiological screen using canine Purkinje fibers. Using conventional microelectrode techniques the effects of the drugs on the action potential characteristics of the Purkinje fiber were measured. Both Class I and Class III antiarrhythmic agents can be disinguished using this method.

[1] = Canis lupus familiaris, purkinje, normal stimulated beat, basic cycle length 1000 milliseconds, NR = not reached
[2] = normal stimulated beat, basic cycle length 1000 milliseconds, NR = not reached
[3] = Canis lupus familiaris, purkinje
[4] = Canis lupus familiaris, purkinje, at 10 μM, basic cycle length 1000 milliseconds
[5] = Canis lupus familiaris, purkinje, at 10 (concentration, μM), read-out: Vmax: change in the rate of rise of phase 0 of the action potential from control value
[6] = Canis lupus familiaris, purkinje, read-out: Vmax: change in the rate of rise of phase 0 of the action potential from control value
[7] = Canis lupus familiaris, purkinje, basic cycle length 1000 milliseconds

Compound: CCCCCCC[n+]1ccn(CCCCc2ccc(Cl)cc2)c1 [Compound I-1, 1-[4-(4-Chlorophenyl)butyl]-3-heptylimidazolium chloride]
- Emax at 30 µM (Canis lupus familiaris, purkinje, at 30 μM, basic cycle length 1000 milliseconds): 27%
- inhibition at 15 µM (Canis lupus familiaris, purkinje, at 15 (concentration, μM), read-out: Vmax: change in the rate of rise of phase 0 of the action potential from control value): 20%
- EC10 [1]: 12 µM

Compound: CCCCCCCn1cc[n+](CCCCc2ccc(OC)cc2)c1.[Br-] [Compound I-7]
- MaxAPD95: maximum observed effect on APD95 from control value (at 10 μM, basic cycle length 1000 milliseconds): 26%
- Vmax: change in the rate of rise of phase 0 of the action potential from control value (at 10 (concentration, μM), 10 µM): -12%
- EC10 [2]: 0.5 µM
- EC20 [2]: 8 µM

Compound: CCCCCCC[n+]1ccn(CCCCc2ccc(NC(C)=O)cc2)c1.Cc1ccc(S(=O)(=O)[O-])cc1 [Compound I-14, 1-[4-(4-(Acetylamino)phenyl)butyl]-3-heptylimidazolium 4-methylbenzenesulfonate]
- EC10 [3]: 13 µM
- EC20 [3]: 30 µM
- Emax at 30 µM [3]: 21%
- Vmax: change in the rate of rise of phase 0 of the action potential from control value (in words): increased

Compound: CCC[n+]1ccn(CCCCc2ccc(Cl)cc2)c1.O=P([O-])(O)O [Compound I-16, 1-[4-(4-Chlorophenyl)butyl]-3-propylimidazolium dihydrogenphosphate]
- Emax at 10 µM [4]: 11%
- EC10 [1]: 6 µM
- Vmax: change in the rate of rise of phase 0 of the action potential from control value (at >10 (concentration, μM)): -20%

Compound: CCCCCCC[n+]1ccn(CCCCc2ccc(F)cc2)c1 [Compound I-19, 1-[4-(4-Fluorophenyl)butyl]-3-heptylimidazolium dihydrogenphosphate]
- Emax at 10 µM [4]: 20%
- inhibition at 10 µM [5]: 6%
- EC10 [1]: 1 µM
- EC20 [1]: 10 µM

Compound: CCCCC[n+]1ccn(CCCCc2ccc(Cl)cc2)c1 [Compound I-20, 1-[4-(4-Chlorophenyl)butyl]-3-pentylimidazolium dihydrogenphosphate]
- Emax at 10 µM [4]: 23%
- EC10 [1]: 0.8 µM
- EC20 [1]: 6 µM

Compound: CCCCn1cc[n+](CCCCc2ccc(Cl)cc2)c1 [Compound I-21, 1-Butyl-3-[4-(4-chlorophenyl)butyl]imidazolium dihydrogenphosphate]
- Emax at 10 µM [4]: 25%
- EC10 [1]: 2 µM
- EC20 [1]: 6 µM

Compound: CCCCCCCn1cc[n+](CCCCc2ccc(NS(C)(=O)=O)cc2)c1.O=P([O-])(O)O [Compound I-22, 1-Heptyl-3-[4-[4-[[(methyl)sulfonyl]amino]phenyl]butyl]imidazolium dihydrogenphosphate]
- Emax at 10 µM [4]: 39%
- EC10 [1]: 1.3 µM
- EC20 [1]: 3 µM
- Vmax: change in the rate of rise of phase 0 of the action potential from control value (in words): Minimal

Compound: CCCCCCC[n+]1ccn(C(C)CCCc2ccc(Cl)cc2)c1 (stereo not shown) [Compound I-25, 1-[4-(4-Chlorophenyl)-1-methylbutyl]-3-heptylimidazolium 4-methylbenzenesulfonate]
- EC10 [3]: 10 µM
- Emax at 10 µM [3]: 10%

Compound: CCCCCCC[n+]1ccn(CCC#Cc2ccc(Cl)cc2)c1 [Compound I-29, 1-[4-(4-Chlorophenyl)-3-butynyl]-3-heptylimidazolium 4-methylbenzenesulfonate]
- EC10 [3]: 20 µM
- Emax at 30 µM [3]: 15%
- inhibition at 20 µM [6]: 20%

Compound: Cc1n(C)cc[n+]1CCCCc1ccc(NS(C)(=O)=O)cc1 [Compound I-30, 1,2-Dimethyl-3-[4-[4-[[methanesulfonyl]amino]phenyl]butyl]imidazolium methanesulfonate]
- Emax at 10 µM [4]: 23%
- EC10 [1]: 1 µM
- EC20 [1]: 7 µM

Compound: Cc1n(CCCCc2ccc(Cl)cc2)cc[n+]1C [Compound I-34, 1-[4-(4-Chlorophenyl)butyl]-2,3-dimethylimidazolium chloride]
- Emax at 10 µM [4]: 25%
- EC10 [1]: 1.4 µM
- EC20 [1]: 6 µM

Compound: C[n+]1ccn(CC(O)c2ccc(NS(C)(=O)=O)cc2)c1 (stereo not shown) [Compound I-38, 1-[2-Hydroxy-2-[4-[(methanesulfonyl)amino]phenyl]ethyl]-3-methylimidazolium iodide]
- Emax at 10 µM [4]: 63%
- inhibition at 10 µM [5]: 5%
- EC10 [1]: 0.3 µM
- EC20 [1]: 0.8 µM

Compound: CCCCCCCn1cc[n+](CC(=O)c2ccc(NS(C)(=O)=O)cc2)c1 [Compound I-39, 1-Heptyl-3-[2-[4-[(methanesulfonyl)amino]phenyl]-2-oxoethyl]imidazolium br omide]
- Emax at 10 µM [4]: 21%
- EC10 [1]: 1.7 µM
- EC20 [1]: 9 µM

Compound: CCCCCCC[n+]1ccn(C/C=C\Cc2ccc(Cl)cc2)c1 [Compound I-42, (Z)-1-[4-(4-Chlorophenyl)-2-butenyl]-3-heptylimidazolium dihydrogenphosphate]
- Emax at 100 µM [7]: 12%
- inhibition at 100 µM [6]: 26%
- EC10 [1]: 38 µM

Compound: Cn1cc[n+](CCc2ccc(NS(C)(=O)=O)cc2)c1 [Compound I-43, 1-Methyl-3-[2-[4-((methylsulfonyl)amino)phenyl]ethyl]-1H-imidazolium iodide]
- Emax at 10 µM [4]: 21%
- EC10 [1]: 2 µM
- EC20 [1]: 8 µM

Compound: Cn1cc[n+](CC(=O)c2ccc(NS(C)(=O)=O)cc2)c1 [Compound I-44, 1-Methyl-3-[2-[4-((methylsulfonyl)amino)phenyl]-2-oxoethyl]-1H-imidazoliumbromide]
- Emax at 10 µM [4]: 38%
- EC10 [1]: 1 µM
- EC20 [1]: 2.3 µM

Compound: O=[N+]([O-])c1ccc(CCCCn2ccnc2)cc1 [II-1, 1-[4-(4-Nitrophenyl)butyl]imidazole hydrochloride]
- Emax at 10 µM [4]: 27%
- EC10 [1]: 1.2 µM
- EC20 [1]: 4 µM

Compound: CS(=O)(=O)Nc1ccc(C(=O)Cn2ccnc2)cc1 [II-2, N-[4-(1H-Imidaz-1-ylacetyl)phenyl]methanesulfonamide]
- Emax at 100 µM [7]: 67%
- inhibition at 100 µM [6]: 15%
- EC10 [1]: 3 µM
- EC20 [1]: 14 µM

Compound: O=C(Cn1ccnc1)c1ccc([N+](=O)[O-])cc1 [II-3, 2-(1H-Imidaz-1-yl)-1-(4-nitrophenyl)ethanone hydrochloride]
- Emax at 100 µM [7]: 29%
- EC10 [1]: 20 µM
- EC20 [1]: 50 µM

Compound: CS(=O)(=O)Nc1ccc(C(O)Cn2ccnc2)cc1 (stereo not shown) [II-4, N-[4-(1-Hydroxy-2-(1H-imidazol-1-yl)ethyl]phenyl]methanesulfonamide]
- Emax at 10 µM [4]: 23%
- inhibition at 10 µM [5]: 15%
- EC10 [1]: 2 µM
- EC20 [1]: 7 µM

Compound: Nc1ccc(C(=O)Cn2ccnc2)cc1 [II-5, 1-(4-Aminophenyl)-2-(1H-imidazol-1-yl)ethanone]
- Emax at 10 µM [4]: 13%
- EC10 [1]: 4 µM
- Vmax: change in the rate of rise of phase 0 of the action potential from control value (in words): Minimal

Compound: O=[N+]([O-])c1ccc(C(O)Cn2ccnc2)cc1 (stereo not drawn) [II-6, α-(4-Nitrophenyl)-1H-imidazole-1-ethanol]
- Emax at 100 µM [7]: 28%
- EC10 [1]: 15 µM
- EC20 [1]: 43 µM

Compound: CS(=O)(=O)Nc1ccc(CCn2ccnc2)cc1 [II-7, N-[4-[2-(1H-Imidazol-1-yl)ethyl]phenyl]methanesulfonamide]
- Emax at 100 µM [7]: 47%
- EC10 [1]: 2 µM
- EC20 [1]: 10 µM

Compound: O=[N+]([O-])c1ccc(CCn2ccnc2)cc1 [II-8, 1-[2-(4-Nitrophenyl)ethyl]-1H-imidazole hydrochloride]
- Emax at 100 µM [7]: 29%
- inhibition at 0.1 µM (Canis lupus familiaris, purkinje, at 0.1 (concentration, μM), read-out: Vmax: change in the rate of rise of phase 0 of the action potential from control value): 15%
- EC10 [1]: 7 µM
- EC20 [1]: 30 µM

From patent US4613609A, “Antiarrhythmic imidazoliums” (Schering A. G., priority 1984, dated 1986)
